25 molecules from patent EP2951180B1, “2,6,7,8 SUBSTITUTED PURINES AS HDM2 INHIBITORS” (Merck Sharp & Dohme Corp., priority 2013, dated 2014) can be followed below.

One may read the IC50 as the concentration that gives 50% inhibition.

The assay concerns the target T1, HDM2 (Homo sapiens, UniProt Q00987).
T1 construct: Thioredoxin (N); made in house; host or cells: E. coli strain BL21(DE3)Rosetta
The assay is described as follows: HDM2 FRET assay (inhibition of binding of FITC labeled p53-pocket peptide to HDM2). Particulars: for IC50: read-out: FRET IC50. The procedure, abridged:
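Signal is read as the 520/495 nm emission ratio and converted to percent inhibition; nonlinear sigmoidal regression yields IC50. The assay mixes HDM2 (0.5 nM), FITC-p53 peptide (3 nM) and Tb anti-His antibody (0.25 nM) at 0.1% DMSO.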

Setting [1] is: 0.5 nM HDM2 (residues 17 to 125), 3nM peptide, two hour incubation at room temperature.

Molecules are shown by their SMILES. Read-outs that look alike come from different tables or passages of the source.

T1 sequence (Q00987 17-125): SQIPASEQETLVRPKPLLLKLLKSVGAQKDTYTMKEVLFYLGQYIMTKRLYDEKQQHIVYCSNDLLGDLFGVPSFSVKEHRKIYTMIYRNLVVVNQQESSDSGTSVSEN

Consider `Cc1cccc(-c2nc(-c3noc(=O)[nH]3)nc3nc(N4CCOC[C@H]4c4ccccc4)n(C[C@H]4CC[C@H](C)CC4)c23)c1` [Example 16.17, 3-{7-[(trans-4-methylcyclohexyl)methyl]-6-(3-methylphenyl)-8-[(3R)-3-phenylmorpholin-4-yl]-7H-purin-2-yl}-1,2,4-oxadiazol-5(4H)-one], for which the IC50 under setting [1] amounted to 3.96 nM.
Take `C[C@@H](Nc1nc(C(=O)O)nc2nc(C3=N[C@H](c4ccccc4)CO3)n(Cc3ccc(C(F)(F)F)cc3)c12)C1CCC1` [Example 10.22, 6-(((R)-1-Cyclobutylethyl)amino)-8-((R)-4-phenyl-4,5-dihydrooxazol-2-yl)-7-(4-(trifluoromethyl)benzyl)-7H-purine-2-carboxylic acid]: the IC50 (Table 10) worked out at 28.4 nM.
On the same count and under the same terms, in the case of `CCCN(c1nc2nc(C(=O)O)nc(N[C@H](C)C3CCC3)c2n1Cc1ccc(C(F)(F)F)cc1)[C@@H](C)c1cccc(F)c1` [Example 10.26, 6-{[(1R)-1-cyclobutylethyl]amino}-8-{[(1S)-1-(3-fluorophenyl)ethyl](propyl)amino}-7-[4-(trifluoromethyl)benzyl]-7H-purine-2-carboxylic acid] it was 1.94 nM.
`C[C@@H](Nc1nc(C(=O)NS(C)(=O)=O)nc2nc(N3CCOC[C@H]3c3ccccc3)n(C[C@H]3CC[C@H](C)CC3)c12)C1CCC1` [Example 12.18, 6-{[(1R)-1-cyclobutylethyl]amino}-7-[(trans-4-methylcyclohexyl)methyl]-N-(methylsulfonyl)-8-[(3R)-3-phenylmorpholin-4-yl]-7H-purine-2-carboxamide]: the IC50 under setting [1] came out at 0.585 nM.
On to `C[C@H]1CC[C@H](Cn2c(C3(c4ccccn4)CC3)nc3nc(-c4nc(=O)o[nH]4)nc(-c4cccc(Cl)c4)c32)CC1` [Example 23.102, 3-[6-(3-chlorophenyl)-7-[(trans-4-methylcyclohexyl)methyl] -8-(1-pyridin-2-ylcyclopropyl)-7H-purin-2-yl]-1,2,4-oxadiazol-5(2H)-one], for which, where the note is “Table 23”, the IC50 amounted to 17 nM.
Take `C[C@@H](Nc1nc(-c2noc(=O)[nH]2)nc2nc(C3CCCCC3)n(C[C@H]3CC[C@H](C)CC3)c12)C1CCC1` [Example 21.39, 3-(6-{[(1R)-1-cyclobutylethyl]amino}-8-cyclohexyl-7-[(trans-4-methylcyclohexyl)methyl]-7H-purin-2-yl)-1,2,4-oxadiazol-5(4H)-one]: the concentration for half-maximal inhibition (IC50) (Table 21) worked out at 7.87 nM.
Turning to `CCCC(C)N(C)c1nc(C(=O)O)nc2nc(-c3cccc(C)c3)n(Cc3ccc(C(F)(F)F)cc3)c12` (stereo not shown) [Example 6.79, 6-[methyl(1-methylbutyl)amino]-8-(3-methylphenyl)-7-[4-(trifluoromethyl)benzyl]-7H-purine-2-carboxylic acid], the inhibition at 1 µM (read-out: inh. at 1000 nM (FRET)) worked out at 43%.
For the molecule `C[C@H]1CC[C@H](Cn2c(N3CCOCC34CCC4)nc3nc(-c4noc(=O)[nH]4)nc(-c4cncc(Cl)c4)c32)CC1` [Example 16.144, 3-[6-(5-chloropyridin-3-yl)-7-[(trans-4-methylcyclohexyl)methyl]-8-(8-oxa-5-azaspiro[3.5]non-5-yl)-7H-purin-2-yl]-1,2,4-oxadiazol-5(4H)-one], under setting [1], the IC50 was found to be 19.1 nM.
Take `C[C@@H](Nc1nc(-c2noc(=O)[nH]2)nc2nc(N(C)CCc3ccccc3)n(Cc3ccc(C(F)(F)F)cc3)c12)C1CCC1` [Example 9.94, 3-(6-{[(1R)-1-cyclobutylethyl]amino}-8-[methyl(2-phenylethyl)amino]-7-[4-(trifluoromethyl)benzyl]-7H-purin-2-yl)-1,2,4-oxadiazol-5(4H)-one]: the IC50 (Table 9) is 96.7 nM.
For `CC[C@@H]1COCCN1c1nc2nc(-c3noc(=O)[nH]3)nc(-c3cccc(Cl)c3)c2n1C(C)[C@H]1CC[C@H](C)CC1` (single isomer, unassigned) [Example 18.50], the concentration for half-maximal inhibition (IC50) (Table 18) was found to be 7.04 nM.
As for `C[C@@H](Nc1nc(-c2noc(=O)[nH]2)nc2nc(C(C)(O)c3cccnc3)n(C[C@H]3CC[C@H](C)CC3)c12)C1CCC1` (stereo partly drawn) [Example 22.40, 3-(6-{[(1R)-1-cyclobutylethyl]amino}-8-(1-hydroxy-1-pyridin-3-ylethyl)-7-[(trans-4-methylcyclohexyl)methyl] -7H-purin-2-yl)-1,2,4-oxadiazol-5(2H)-one], the IC50 (Table 22) came to 41.6 nM.
In the case of `CC[C@H]1CC[C@H](Cn2c(-c3cccc(C)c3)nc3nc(C(=O)O)nc(N[C@H](C)C4CCC4)c32)CC1` [Example 18.15, 6-{[(1R)-1-cyclobutylethyl]amino}-7-[(trans-4-ethylcyclohexyl)methyl]-8-(3-methylphenyl)-7H-purine-2-carboxylic acid], for the setting “Table 18”, the IC50 came out at 201 nM.
The same measure, in the same setting: next, `CC([C@H]1CC[C@H](C)CC1)n1c(N2CCOC[C@H]2C)nc2nc(-c3n[nH]c(=O)o3)nc(-c3cccc(Cl)c3)c21` (single isomer, unassigned) [Example 18.36]: 8.87 nM.
Consider `C[C@@H](Nc1nc(-c2noc(=O)[nH]2)nc2nc(C3(F)CCC3)n(C[C@H]3CC[C@H](C)CC3)c12)C1CCC1` [Example 22.68, 3-(6-{[(1R)-1-cyclobutylethyl]amino}-8-(1-fluorocyclobutyl)-7-[(trans-4-methylcyclohexyl)methyl] -7H-purin-2-yl)-1,2,4-oxadiazol-5(4H)-one], for which the IC50 (Table 22) turned out to be 16.9 nM.
For `CC([C@H]1CC[C@H](C)CC1)n1c(N2CCOC3CCCC32)nc2nc(-c3n[nH]c(=O)o3)nc(N[C@H](C)C3CCC3)c21` (stereo partly drawn) [Example 18.44, 5-(6-{ [(1R)-1-cyclobutylethyl]amino}-8-(hexahydrocyclopenta[b] [1,4]oxazin-4(4aH)-yl)-7-[1-(trans-4-methylcyclohexyl)ethyl]-7H-purin-2-yl)-1,3,4-oxadiazol-2(3H)-one], the half-maximal inhibitory concentration (IC50) (Table 18) was 5.37 nM.
As for `C=CCN(c1nc2nc(C(=O)O)nc(N[C@H](C)C3CCC3)c2n1Cc1ccc(C(F)(F)F)cc1)[C@@H](C)c1cccc(F)c1` [Example 10.27, 8-(Allyl((S)-1-(3-fluorophenyl)ethyl)amino)-6-(((R)-1-cyclobutylethyl)amino)-7-(4-(trifluoromethyl)benzyl)-7H-purine-2-carboxylic acid], the IC50 (Table 10) worked out at 9.84 nM.
As to `CC[C@@H](Nc1nc(C(=O)O)nc2nc(-c3cc(C(C)C)ccn3)n(Cc3ccc(C(F)(F)F)cc3)c12)C1CCC1` [Example 6.55, 6-{[(1R)-1-cyclobutylpropyl]amino}-8-[4-(1-methylethyl)pyridin-2-yl]-7-[4-(trifluoromethyl)benzyl]-7H-purine-2-carboxylic acid], the IC50 (Table 6) came to 9.27 nM.
Turning to `C[C@H]1CC[C@H](Cn2c(C(=O)C3CCOCC3)nc3nc(-c4n[nH]c(=O)o4)nc(-c4cccc(Cl)c4)c32)CC1` [Example 23.9, 5-[6-(3-chlorophenyl)-7-[(trans-4-methylcyclohexyl)methyl] -8-(tetrahydro-2H-pyran-4-ylcarbonyl)-7H-purin-2-yl]-1,3,4-oxadiazol-2(3H)-one], the IC50 (Table 23) is 24.6 nM.
As to `C[C@@H](Nc1nc(C(=O)O)nc2nc(N3C[C@H]4C[C@@H]3CO4)n(Cc3ccc(C(F)(F)F)cc3)c12)C1CCC1` [Example 9.27, 6-{[(1R)-1-cyclobutylethyl]amino}-8-[(1R,4R)-2-oxa-5-azabicyclo [2.2.1]hept-5-yl]-7-[4-(trifluoromethyl)benzyl]-7H-purine-2-carboxylic acid], under “Table 9”, the IC50 was 23.7 nM.
Regarding `CC1CCCC(c2nc(-c3noc(=O)[nH]3)nc3nc(N4CCOC[C@H]4c4ccccc4)n(C[C@H]4CC[C@H](C)CC4)c23)C1` (stereo partly drawn) [Example 16.169, 3-{6-(3-methylcyclohexyl)-7-[(trans-4-methylcyclohexyl)methyl]-8-[(3R)-3-phenylmorpholin-4-yl]-7H -purin-2-yl}-1,2,4-oxadiazol-5(4H)-one], under setting [1], the IC50 was determined as 2.53 nM.
In the case of `C[C@@H](Nc1nc(C(=O)O)nc2nc(CN(C)C3CCCCC3)n(Cc3ccc(C(F)(F)F)cc3)c12)C1CCC1` [Example 10.14, (R)-6-((1-cyclobutylethyl)amino)-8-((cyclohexyl(methyl)amino)methyl)-7-(4-(trifluoromethyl)benzyl)-7H-purine-2-carboxylic acid], the IC50 (Table 10) came out at 4.53 nM.
`CCC(C)CNc1nc(C(=O)O)nc2nc(-c3cccc(C)c3)n(Cc3ccc(C(F)(F)F)cc3)c12` (stereo not shown) [Example 6.63, 6-[(2-methylbutyl)amino]-8-(3-methylphenyl)-7-[4-(trifluoromethyl)benzyl]-7H-purine-2-carboxylic acid]: under “Table 6”, the IC50 came out at 719 nM.
Regarding `C[C@@H](Nc1nc(C(=O)O)nc2nc(N[C@H](CO)c3ccccc3)n(Cc3ccc(C(F)(F)F)cc3)c12)C1CCC1` [Example 9.8, 6-{[(1R)-1-cyclobutylethyl]amino}-8-{[(1S)-2-hydroxy-1-phenylethyl]amino}-7-[4-(trifluoromethyl)benzyl]-7H-purine-2-carboxylic acid], the IC50 (Table 9) was 15.2 nM.
On to `C[C@@H](Nc1nc(N2CCC(C(=O)O)C2)nc2nc(N3CCOC[C@H]3c3ccccc3)n(C[C@H]3CC[C@H](C)CC3)c12)C1CCC1` (stereo partly drawn) [Example 13.9, 1-(6-{[(1R)-1-cyclobutylethyl]amino}-7-[(trans-4-methylcyclohexyl)methyl]-8-[(3R)-3-phenylmorpholin-4-yl]-7H-purin-2-yl)pyrrolidine-3-carboxylic acid], for which the IC50 under setting [1] worked out at 199 nM.
Regarding `C[C@@H]1OCCN(c2nc3nc(-c4noc(=O)[nH]4)nc(N[C@H](C)C4CCC4)c3n2C[C@H]2CC[C@H](C)CC2)[C@@H]1c1ccccc1` [Example 11.163, 3-(6-{[(1R)-1-cyclobutylethyl]amino}-7-[(trans-4-methylcyclohexyl)methyl]-8-[(2S,3R)-2-methyl-3-phenylmorpholin-4-yl]-7H-purin-2-yl)-1,2,4-oxadiazol-5(4H)-one], the IC50 (Table 11) was found to be 21.2 nM.
